How the values were obtained:
PDE7A [1] = conditions: read-out: IC50 (µM) Against PDE Isoform PDE7A; cited from earlier work
[2] = Pharmacokinetic study in rats, single IP dose, serum; format: in vivo; conditions: female, Lewis, rat
Experimental: (§1) Female Lewis rats and female C57BL/6 mice were administered IP with compound 34 dissolved in vehicle at a dose of 20 and 50 mg·kg^−1, respectively. Rats and mice were sacrificed at different time points (n = 3 per time point) following compound administration by decapitation under deep anesthesia. Thereafter, blood samples were harvested and allowed to clot at room temperature for 20 min and serum was separated by centrifugation at 3000 rpm for 10 min (EBA 12 R, Hettich, Germany). The obtained serum samples were stored at −80 °C until analysis.
(§2) Concentrations of compound 34 in rat and murine serum were quantified by an HPLC/UV method. To isolate the investigated compound, 100 μL of serum containing compound 34 or the same volume of blank serum spiked with a standard solution of compound 34, 10 μL of 4-(8-((furan-2-ylmethyl)amino)-1,3-dimethyl-2,6-dioxo-2,3,6,7-tetrahydro-1H-purin-7-yl)-N’-(2-hydroxybenzylidene)butanehydrazide methanol solution was used as an internal standard (IS) at a concentration of 80 μg·mL^−1, and 50 μL of 0.2 M NaOH solution was added. Subsequently, 1 mL of ethyl acetate was added to each sample and extraction was performed for 20 min on a VXR Vibrax shaker (IKA, Germany). Then, the samples were centrifuged (10,000× g, 5 min) on EBA 12 R centrifuge (Hettich, Germany) and the organic layers were collected and transferred to clean tubes. Subsequently, the organic layers were evaporated under a mild stream of nitrogen at 37 °C and the residues were dissolved in 100 μL of mobile phase and subjected to an HPLC analysis. The HPLC system (LaChrom Elite, Merck-Hitachi, Germany) consisted of L-2420 UV-VIS detector, an L-2200 autosampler, and an L-2130 pump. EZChrome Elite v. 3.2 (Merck-Hitachi, Germany) software was used for data acquisition and integration. The analysis was performed at ambient temperature on a LiChrospher 100 RP-18 column (250 × 4 mm) and a LiChroCART (4 × 4 mm) pre-column (Merck, Germany). The mobile phase was composed of acetonitrile mixed with 20 mM KH2PO4 water solution (pH = 4.5) at the ratio of 40:60 (v/v). A flow rate was 1 mL·min^−1 and analytical wavelength was set at 302 nm. The retention times of compound 34 and IS were approximately 6.3 min and 10.6 min. The method was validated according to the FDA Bioanalytical Method Validation Guidance for Industry (2018). The calibration curves constructed by plotting the peak area of the studied compound to the peak area of the IS vs. compound concentrations were linear in the tested concentration range, i.e., from 0.05–10 mg·L^−1 (r > 0.998). The limit of quantification was 0.05 mg·L^−1. […] The assay presented acceptable intra- and inter-assay precision and accuracy (i.e., they were within 15% of the CV and 15% of the nominal concentration, respectively) for all quality control concentrations (0.1, 1, and 5 mg·L^−1). The mean extraction efficiencies of the analyzed compound and the IS were above 80%.
(§3) Pharmacokinetics of compound 34 were investigated in rats and mice following single IP administration. One- and two-compartment models with first-order absorption and linear elimination were tested, but only the one-compartment model appropriately described the concentration-time courses of compound 34 in both rat and murine serum. […] The equations of the model are as follows:(1) dA/dt=−ka×A;A0=D×F, (2) Vd×dCp/dt=ka×A−CLT×Cp; Cp0=0 where A is the amount of the drug at the absorption site, ka is the first-order rate constant of drug absorption, D is the dose, F is the bioavailability, Vd is the volume of distribution, CLT is the total clearance, and Cp is the serum concentration of compound 34.

PDE7A [3] = experiment: PDE inhibition assay, PDE7A (previous investigations); format: biochemical; conditions: ratio of IC50 values, vs GRMS-55
[4] = system: ConA-induced hepatitis in mice; experiment: ConA-induced hepatitis in mice; format: in vivo, BALB/c mice; conditions: 50 mg·kg^−1 IP 30 min prior to ConA
Experimental: ConA was dissolved in saline for injection at a concentration of 2 mg·mL^−1. The mice were given IP doses of compound 34 or the equivalent volume of vehicle (control group) and, 30 min later, animals were given an IV injection of ConA (20 mg·kg^−1) via tail vein. An additional group of mice was given vehicle alone IP followed by an IV injection of saline. The mice were sacrificed by exsanguination at 2, 8, and 24 h post-ConA dosing. Blood samples were collected and handled as described above.
Serum aspartate transaminase (AST) and alanine transaminase (ALT) activities were analyzed using the chemistry analyzer BS-800 (Shenzhen Mindray Bio-medical Electronics Co., Ltd., Shenzhen, China). Cytokine levels in mouse serum (TNFα, IL-4, IL-6, and interferon (IFN)γ) were quantified by a Magnetic Luminex® Assay (R&D Systems, Inc, Minneapolis, MN, USA) using a Magpix platform (Luminex Corp., Austin, TX, USA).

[5] = Pharmacokinetic study in mice, single IP dose, serum; format: in vivo, female C57BL/6 mice; conditions: female, mouse
Experimental: as §1, §2, §3

PDE4B = experiment: PDE inhibition assay, PDE4B (previous investigations); format: biochemical; conditions: ratio of IC50 values, vs GRMS-55

absorption half-life ([2]; serum, 20 mg·kg^−1, IP, suspension in 10% methylcellulose): 1.2 min
Vd/F ([2]; single IP dose 20 mg·kg^−1, serum, one-compartment model, read-out: Vd/F Apparent volume of distribution, Final Estimate (CV%)): 8.7 L/kg
AUC ([2]; single IP dose 20 mg·kg^−1, serum, read-out: AUC Area under the concentration-time curve, Final Estimate (CV%) (converted)): 752 ng·h/mL
CL/F ([2]; single IP dose 20 mg·kg^−1, serum, read-out: CLT/F Apparent clearance, Final Estimate (CV%)): 440 mL/min/kg
Cmax ([2]; single IP dose 20 mg·kg^−1, serum, read-out: Cmax Maximum serum concentration, Final Estimate (CV%)): 1820 ng/mL
half-life ([2]; single IP dose 20 mg·kg^−1, serum, read-out: t0.5 Elimination half-life, Final Estimate (CV%)): 13.6 min
absorption half-life ([5]; C57BL/6, serum, 50 mg·kg^−1, IP, solution in DMSO:PEG400:sterile water (10:40:50)): 4.5 min
Vd/F ([5]; C57BL/6, single IP dose 50 mg·kg^−1, serum, one-compartment model, read-out: Vd/F Apparent volume of distribution, Final Estimate (CV%)): 21.7 L/kg
AUC ([5]; C57BL/6, single IP dose 50 mg·kg^−1, serum, read-out: AUC Area under the concentration-time curve, Final Estimate (CV%) (converted)): 818 ng·h/mL
CL/F ([5]; C57BL/6, single IP dose 50 mg·kg^−1, serum, read-out: CLT/F Apparent clearance, Final Estimate (CV%)): 1020 mL/min/kg
Cmax ([5]; C57BL/6, single IP dose 50 mg·kg^−1, serum, read-out: Cmax Maximum serum concentration, Final Estimate (CV%)): 1370 ng/mL
half-life ([5]; C57BL/6, single IP dose 50 mg·kg^−1, serum, read-out: t0.5 Elimination half-life, Final Estimate (CV%)): 14.7 min
SMILES: Cn1c(=O)c2c(nc(NCCc3ccccc3)n2CCCC(=O)NN=Cc2ccc(O)c(O)c2O)n(C)c1=O [Compound 34, 4-(1,3-dimethyl-2,6-dioxo-8-(phenethylamino)-2,3,6,7-tetrahydro-1H-purin-7-yl)-N′-(2,3,4-trihydroxybenzylidene)butanehydrazide]
IC50 (PDE7A [1]): 3.2 µM
times more potent as a PDE7A inhibitor compared to GRMS-55 (PDE7A [3]): about two
serum IFNγ level compared to the control group ([4]; 2 h after ConA injection): not significantly different
serum IL-4 concentration, lower compared to the control group ([4]; 2 h after ConA injection): 76%
serum IL-6 level compared to the control group ([4]; 2 h after ConA injection): not significantly different
serum TNFα concentration, lower compared to the control group ([4]; 2 h after ConA injection): 34%
ALT serum activity, reduction compared to the control group ([4]; 8 h post-ConA injection): 73%
AST serum activity, reduction compared to the control group ([4]; 8 h post-ConA injection): 59%
serum IFNγ concentration, lower compared to the control group ([4]; 24 h post-ConA dosing): 36%
serum IL-4 level, treatment vs control group ([4]; 24 h post-ConA dosing): not different
serum IL-6 level, treatment vs control group ([4]; 24 h post-ConA dosing): not different
times more active as a PDE4B inhibitor compared to GRMS-55 (PDE4B): 19 times

Source: paper PMC9147171, “Pharmacokinetic/Pharmacodynamic Evaluation of a New Purine-2,6-Dione Derivative in Rodents with Experimental Autoimmune Diseases” (Pharmaceutics, 2022)
